Here are results for nine compounds from ChEMBL document CHEMBL3045169, “In vitro evaluation of the antibacterial and antifungal activity of some new pyrazolyl-quinazolin-4(3H)-one derivatives” (2012).

What all share (format): functional
The test system of assay [1] is Pseudomonas aeruginosa. The experiment in a line: Antibacterial activity against Pseudomonas aeruginosa ATCC 9027 by agar cup-plate method relative to penicillin-G. Details: concentration or dose not given beside the values.
The test system of assay [2] is Pseudomonas aeruginosa. The experiment in a line: Antibacterial activity against Pseudomonas aeruginosa ATCC 9027 at 100 ug/ml by agar cup-plate method. Particulars: read-out: IZ.
Assay [3] deals with Aspergillus niger. The experiment in a line: Antifungal activity against Aspergillus niger ATCC 6275 at 10 ug/ml by agar cup-plate method. The conditions noted are these: read-out: IZ.
The test system of assay [4] is Escherichia coli. The experiment in a line: Antibacterial activity against Escherichia coli ATCC 25922 at 50 ug/ml by agar cup-plate method. Particulars: read-out: IZ.
The subject of assay [5] is Bacillus subtilis. The experiment in a line: Antibacterial activity against Bacillus subtilis ATCC 6633 at 100 ug/ml by agar cup plate method. Particulars: read-out: IZ.
Assay [6] concerns Bacillus subtilis. The experiment in a line: Antibacterial activity against Bacillus subtilis ATCC 6633 at 50 ug/ml by agar cup plate method. The conditions noted are these: read-out: IZ.
Assay [7] deals with Candida albicans. The experiment in a line: Antifungal activity against Candida albicans ATCC 10231 at 20 ug/ml by agar cup-plate method. Particulars: read-out: IZ.
In assay [8] the test system is Aspergillus niger. The experiment in a line: Antifungal activity against Aspergillus niger ATCC 6275 by agar cup-plate method relative to fluconazole. Details: concentration or dose not given beside the values.
In assay [9] the test system is Candida albicans. The experiment in a line: Antifungal activity against Candida albicans ATCC 10231 at 10 ug/ml by agar cup-plate method. Particulars: read-out: IZ.
The subject of assay [10] is Pseudomonas aeruginosa. The experiment in a line: Antibacterial activity against Pseudomonas aeruginosa ATCC 9027 at 50 ug/ml by agar cup-plate method. Particulars: read-out: IZ.
For assay [11], the system named is Staphylococcus aureus. The experiment in a line: Antibacterial activity against Staphylococcus aureus ATCC 9144 by agar cup-plate method relative to penicillin-G. Details: concentration or dose not given beside the values.
Assay [12] concerns Staphylococcus aureus. The experiment in a line: Antibacterial activity against Staphylococcus aureus ATCC 9144 at 50 ug/ml by agar cup-plate method. The conditions noted are these: read-out: IZ.
Assay [13] has as its system Staphylococcus aureus. The experiment in a line: Antibacterial activity against Staphylococcus aureus ATCC 9144 at 100 ug/ml by agar cup-plate method. Particulars: read-out: IZ.
Assay [14] relates to Candida albicans. The experiment in a line: Antifungal activity against Candida albicans ATCC 10231 by agar cup-plate method relative to fluconazole. Details: concentration or dose not given beside the values.
Assay [15] deals with Bacillus subtilis. The experiment in a line: Antibacterial activity against Bacillus subtilis ATCC 6633 by agar cup plate method relative to penicillin-G. Details: concentration or dose not given beside the values.
In assay [16] the test system is Aspergillus niger. The experiment in a line: Antifungal activity against Aspergillus niger ATCC 6275 at 20 ug/ml by agar cup-plate method. The conditions noted are these: read-out: IZ.
Assay [17] relates to Escherichia coli. The experiment in a line: Antibacterial activity against Escherichia coli ATCC 25922 at 100 ug/ml by agar cup-plate method. Particulars: read-out: IZ.
Assay [18] deals with Escherichia coli. The experiment in a line: Antibacterial activity against Escherichia coli ATCC 25922 by agar cup-plate method relative to penicillin-G. Details: concentration or dose not given beside the values.

Regarding `COc1ccccc1C1CC(Nn2c(Cc3ccccc3Nc3ccccc3)nc3ccc(I)cc3c2=O)=NN1` (stereo not drawn), the Activity with Pseudomonas aeruginosa [1] amounted to 63.19%; with Aspergillus niger [8], 41.3%; with Staphylococcus aureus [11], 36.21%; with Candida albicans [14], 45.11%; in the assay on Bacillus subtilis [15], 38.97%; in the assay with Escherichia coli [18], 52.45%. The zone of inhibition at 100 µg/mL was 17 mm with Pseudomonas aeruginosa [2], 10 mm with Bacillus subtilis [5], 9 mm in the assay on Staphylococcus aureus [13] and 16 mm in the assay on Escherichia coli [17]. Further, the zone of inhibition at 10 µg/mL with Aspergillus niger [3] and in the assay with Candida albicans [9] was 0 mm each time. The zone of inhibition at 50 µg/mL in the assay on Escherichia coli [4] was found to be 13 mm; in the assay on Bacillus subtilis [6], 8 mm; in the assay with Pseudomonas aeruginosa [10] it was 13 mm; with Staphylococcus aureus [12], 7 mm. For the same compound, the zone of inhibition at 20 µg/mL in the assay with Candida albicans [7] and in the assay on Aspergillus niger [16] was 6 mm in each case.
On to `O=c1c2cc(I)ccc2nc(Cc2ccccc2Nc2ccccc2)n1NC1=NNC(c2ccccc2)C1` (stereo not drawn), for which the Activity in the assay with Pseudomonas aeruginosa [1] was found to be 48.61%; with Aspergillus niger [8], 58.12%; with Staphylococcus aureus [11], 70.87%; with Candida albicans [14], 68.81%; in the assay on Bacillus subtilis [15] it was 81.79%; in the assay on Escherichia coli [18], 40.81%. For the same compound, the zone of inhibition at 100 µg/mL with Pseudomonas aeruginosa [2] came to 7 mm; in the assay with Bacillus subtilis [5], 22 mm; with Staphylococcus aureus [13] it was 21 mm; with Escherichia coli [17], 6 mm. The zone of inhibition at 10 µg/mL with Aspergillus niger [3] and in the assay with Candida albicans [9] was 15 mm each time. The zone of inhibition at 50 µg/mL is 0 mm in the assay on Escherichia coli [4], 18 mm in the assay on Bacillus subtilis [6], 0 mm in the assay on Pseudomonas aeruginosa [10] and 17 mm with Staphylococcus aureus [12]. Further, the zone of inhibition at 20 µg/mL in the assay with Candida albicans [7] amounted to 18 mm; with Aspergillus niger [16], 17 mm.
As to `O=c1c2cc(I)ccc2nc(Cc2ccccc2Nc2ccccc2)n1NC1=NNC(c2ccc(Cl)cc2)C1` (stereo not drawn), the Activity in the assay on Pseudomonas aeruginosa [1] was determined as 48.61%; with Aspergillus niger [8] it was 58.12%; in the assay with Staphylococcus aureus [11], 44.39%; with Candida albicans [14], 67.26%; in the assay with Bacillus subtilis [15], 41.49%; in the assay on Escherichia coli [18], 40.81%. Moreover, the zone of inhibition at 100 µg/mL amounted to 7 mm in the assay on Pseudomonas aeruginosa [2], 6 mm in the assay with Bacillus subtilis [5], 6 mm in the assay with Staphylococcus aureus [13] and 6 mm with Escherichia coli [17]. For the same compound, the zone of inhibition at 10 µg/mL in the assay on Aspergillus niger [3] worked out at 15 mm; in the assay on Candida albicans [9] it was 16 mm. For the same compound, the zone of inhibition at 50 µg/mL in the assay on Escherichia coli [4], in the assay on Bacillus subtilis [6], with Pseudomonas aeruginosa [10] and with Staphylococcus aureus [12] was 0 mm each time. Also, the zone of inhibition at 20 µg/mL worked out at 18 mm in the assay with Candida albicans [7] and 17 mm with Aspergillus niger [16].
Take `O=c1c2cc(I)ccc2nc(Cc2ccccc2Nc2ccccc2)n1NC1=NNC(c2cccc(Cl)c2)C1` (stereo not drawn): the Activity in the assay with Pseudomonas aeruginosa [1] is 44.72%; in the assay on Aspergillus niger [8], 53.99%; in the assay with Staphylococcus aureus [11] it was 44.39%; in the assay on Candida albicans [14], 59.53%; in the assay on Bacillus subtilis [15], 41.49%; with Escherichia coli [18] it was 40.81%. The zone of inhibition at 100 µg/mL with Pseudomonas aeruginosa [2], in the assay on Bacillus subtilis [5], in the assay with Staphylococcus aureus [13] and with Escherichia coli [17] was 6 mm in each case. The zone of inhibition at 10 µg/mL is 12 mm with Aspergillus niger [3] and 14 mm in the assay with Candida albicans [9]. The zone of inhibition at 50 µg/mL in the assay with Escherichia coli [4], with Bacillus subtilis [6], with Pseudomonas aeruginosa [10] and in the assay with Staphylococcus aureus [12] was 0 mm each time. In addition, the zone of inhibition at 20 µg/mL is 16 mm in the assay on Candida albicans [7] and 15 mm in the assay with Aspergillus niger [16].
`O=c1c2cc(I)ccc2nc(Cc2ccccc2Nc2ccccc2)n1NC1=NNC(c2cccc(O)c2)C1` (stereo not drawn): the Activity with Pseudomonas aeruginosa [1] amounted to 39.56%; in the assay on Aspergillus niger [8], 45.04%; in the assay on Staphylococcus aureus [11], 42.34%; in the assay on Candida albicans [14], 49.07%; in the assay on Bacillus subtilis [15], 47.05%; with Escherichia coli [18] it was 34.11%. The zone of inhibition at 100 µg/mL in the assay with Pseudomonas aeruginosa [2] worked out at 10 mm; in the assay with Bacillus subtilis [5], 13 mm; with Staphylococcus aureus [13], 12 mm; in the assay with Escherichia coli [17], 9 mm. The zone of inhibition at 10 µg/mL in the assay on Aspergillus niger [3] and in the assay on Candida albicans [9] was 0 mm in each case. In addition, the zone of inhibition at 50 µg/mL was found to be 7 mm in the assay with Escherichia coli [4], 11 mm in the assay with Bacillus subtilis [6], 8 mm in the assay on Pseudomonas aeruginosa [10] and 10 mm with Staphylococcus aureus [12]. In addition, the zone of inhibition at 20 µg/mL in the assay with Candida albicans [7] and with Aspergillus niger [16] was 7 mm throughout.
As for `CN(C)c1ccc(C2CC(Nn3c(Cc4ccccc4Nc4ccccc4)nc4ccc(I)cc4c3=O)=NN2)cc1` (stereo not drawn), the Activity in the assay on Pseudomonas aeruginosa [1] was determined as 48.61%; in the assay on Aspergillus niger [8], 60.1%; in the assay with Staphylococcus aureus [11] it was 48.23%; in the assay on Candida albicans [14], 68.81%; in the assay on Bacillus subtilis [15] it was 45.27%; in the assay on Escherichia coli [18], 40.81%. Further, the zone of inhibition at 100 µg/mL with Pseudomonas aeruginosa [2] came out at 7 mm; in the assay with Bacillus subtilis [5] it was 7 mm; in the assay on Staphylococcus aureus [13], 7 mm; with Escherichia coli [17], 6 mm. Besides, the figures for the zone of inhibition at 10 µg/mL with Aspergillus niger [3] and with Candida albicans [9] were 14 mm and 15 mm, respectively. The zone of inhibition at 50 µg/mL in the assay with Escherichia coli [4], in the assay with Bacillus subtilis [6], in the assay on Pseudomonas aeruginosa [10] and with Staphylococcus aureus [12] was 0 mm each time. In addition, the zone of inhibition at 20 µg/mL was 18 mm with Candida albicans [7] and 17 mm with Aspergillus niger [16].
In the case of `O=c1c2cc(I)ccc2nc(Cc2ccccc2Nc2ccccc2)n1NC1=NNC(c2cccc([N+](=O)[O-])c2)C1` (stereo not drawn), the Activity in the assay on Pseudomonas aeruginosa [1] was 67.47%; with Aspergillus niger [8], 51.18%; with Staphylococcus aureus [11], 52.83%; with Candida albicans [14] it was 56.01%; with Bacillus subtilis [15] it was 52.61%; in the assay on Escherichia coli [18], 62.3%. Further, the zone of inhibition at 100 µg/mL in the assay on Pseudomonas aeruginosa [2] turned out to be 19 mm; in the assay with Bacillus subtilis [5], 14 mm; in the assay with Staphylococcus aureus [13], 15 mm; with Escherichia coli [17], 19 mm. In addition, the zone of inhibition at 10 µg/mL was determined as 11 mm in the assay on Aspergillus niger [3] and 13 mm with Candida albicans [9]. The zone of inhibition at 50 µg/mL in the assay on Escherichia coli [4] is 15 mm; in the assay on Bacillus subtilis [6] it was 11 mm; with Pseudomonas aeruginosa [10], 16 mm; in the assay on Staphylococcus aureus [12] it was 12 mm. In addition, the zone of inhibition at 20 µg/mL in the assay on Candida albicans [7] was 15 mm; in the assay on Aspergillus niger [16] it was 14 mm.
For the compound `OC(Cn1cncn1)(Cn1cncn1)c1ccc(F)cc1F` [FLUCONAZOLE], the zone of inhibition at 10 µg/mL in the assay with Aspergillus niger [3] turned out to be 22 mm; with Candida albicans [9], 21 mm. The figures for the zone of inhibition at 20 µg/mL with Candida albicans [7] and in the assay on Aspergillus niger [16] were 26 mm and 28 mm, respectively.
Turning to `CC1(C)S[C@@H]2[C@H](NC(=O)Cc3ccccc3)C(=O)N2[C@H]1C(=O)O` [PENICILLIN G], the zone of inhibition at 100 µg/mL stood at 28 mm in the assay with Pseudomonas aeruginosa [2], 27 mm with Bacillus subtilis [5], 30 mm in the assay with Staphylococcus aureus [13] and 31 mm in the assay on Escherichia coli [17]. In addition, the zone of inhibition at 50 µg/mL in the assay with Escherichia coli [4] was determined as 25 mm; with Bacillus subtilis [6], 21 mm; in the assay on Pseudomonas aeruginosa [10] it was 23 mm; in the assay with Staphylococcus aureus [12], 25 mm.
